Source: PubChem BioAssay AID248 (DTP/NCI, 2004)
Where “and” joins values, the source holds several entries; their conditions need not be identical. Identical values can stand only once. Toxic doses and inconclusive results are not listed. Cut-off read from the data, not from the text of the source: active = T/C of 150% or more; inactive = T/C below 125%.

Tested on: L1210 leukemia ip in BDF1 mice, survival T/C
Test: NCI In Vivo Anticancer Drug Screen. Data for tumor model L1210 Leukemia (intraperitoneal) in B6D2F1 (BDF1) mice
Conditions: endpoint: mean survival time, higher = longer survival
Summary of the method: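 Each compound was tested against a transplantable tumor grown in mice. The endpoint was survival, with treated animals benchmarked against vehicle controls as a simple ratio.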

[1] = dose: 100.0 mg/kg/injection, schedule: Q01DX001 (ip), vehicle: saline
[2] = dose: 100.0 mg/kg/injection, schedule: Q04DX003 (ip), vehicle: saline
[3] = dose: 200.0 mg/kg/injection, schedule: Q01DX001 (ip), vehicle: saline
[4] = dose: 200.0 mg/kg/injection, schedule: Q04DX003 (ip), vehicle: saline
[5] = dose: 400.0 mg/kg/injection, schedule: Q01DX001 (ip), vehicle: saline
[6] = dose: 400.0 mg/kg/injection, schedule: Q04DX003 (ip), vehicle: saline
[7] = dose: 100.0 mg/kg/injection, schedule: Q01DX009 (ip), vehicle: saline
[8] = dose: 200.0 mg/kg/injection, schedule: Q01DX009 (ip), vehicle: saline
[9] = dose: 400.0 mg/kg/injection, schedule: Q01DX009 (ip), vehicle: saline
[10] = dose: 100.0 mg/kg/injection, schedule: Q01DX009 (ip), vehicle: saline with Tween-80
[11] = dose: 100.0 mg/kg/injection, schedule: Q04DX003 (ip), vehicle: saline with Tween-80
[12] = dose: 200.0 mg/kg/injection, schedule: Q01DX009 (ip), vehicle: saline with Tween-80
[13] = dose: 200.0 mg/kg/injection, schedule: Q04DX003 (ip), vehicle: saline with Tween-80
[14] = dose: 400.0 mg/kg/injection, schedule: Q04DX003 (ip), vehicle: saline with Tween-80
[15] = dose: 50.0 mg/kg/injection, schedule: Q01DX009 (ip), vehicle: saline with Tween-80
[16] = dose: 100.0 mg/kg/injection, schedule: Q01DX009 (ip), vehicle: other
[17] = dose: 100.0 mg/kg/injection, schedule: Q04DX003 (ip), vehicle: other
[18] = dose: 200.0 mg/kg/injection, schedule: Q01DX009 (ip), vehicle: other
[19] = dose: 200.0 mg/kg/injection, schedule: Q04DX003 (ip), vehicle: other
[20] = dose: 400.0 mg/kg/injection, schedule: Q01DX009 (ip), vehicle: other
[21] = dose: 400.0 mg/kg/injection, schedule: Q04DX003 (ip), vehicle: other

Measured: T/C

CCCc1cn(C2OC(=O)c3ccccc32)c2ccccc12 (stereo not drawn)
inactive: [1] 96 % of control | [2] 109 % of control | [3] 105 % of control | [4] 97 % of control | [5] 102 % of control | [6] 101 % of control

C=C(Br)CN1C(=O)c2ccccc2C1=O
inactive: [7] 89 % of control | [2] 101 % of control | [8] 112 % of control | [4] 104 % of control | [9] 87 % of control | [6] 93 % of control

Cc1c(Cl)cccc1NC(=O)NCCc1ccccc1
inactive: [10] 94 % of control and 101 % of control | dose: 100.0 mg/kg/injection, schedule: Q04DX002 (ip), vehicle: saline with Tween-80 100 % of control and 103 % of control | [11] 100 % of control | [12] 101 % of control and 104 % of control | dose: 200.0 mg/kg/injection, schedule: Q04DX002 (ip), vehicle: saline with Tween-80 93 % of control and 97 % of control | [13] 101 % of control | dose: 400.0 mg/kg/injection, schedule: Q01DX009 (ip), vehicle: saline with Tween-80 100 % of control and 101 % of control | dose: 400.0 mg/kg/injection, schedule: Q04DX002 (ip), vehicle: saline with Tween-80 96 % of control and 97 % of control | [14] 101 % of control

CC(=O)N(C)c1cccc(C(=O)O)c1
inactive: [11] 98 % of control | [13] 94 % of control | [14] 98 % of control

O=C(Cl)c1ccccc1Sc1ccccc1
inactive: dose: 25.0 mg/kg/injection, schedule: Q01DX009 (ip), vehicle: saline with Tween-80 106 % of control | [15] 97 % of control | [10] 92 % of control

CCNC(Cc1ccccc1)C1CCCO1 (stereo not drawn)
inactive: dose: 6.25 mg/kg/injection, schedule: Q01DX009 (ip), vehicle: saline 108 % of control | dose: 12.5 mg/kg/injection, schedule: Q01DX009 (ip), vehicle: saline 94 % of control | dose: 25.0 mg/kg/injection, schedule: Q01DX009 (ip), vehicle: saline 96 % of control | dose: 25.0 mg/kg/injection, schedule: Q04DX003 (ip), vehicle: saline 98 % of control | dose: 50.0 mg/kg/injection, schedule: Q01DX009 (ip), vehicle: saline 113 % of control | dose: 50.0 mg/kg/injection, schedule: Q04DX003 (ip), vehicle: saline 101 % of control | [7] 92 % of control | [2] 104 % of control

Cc1ccc(OCC(=O)Nc2ccc(Cl)cc2)c(C)c1
inactive: dose: 100.0 mg/kg/injection, schedule: Q01DX001 (ip), vehicle: other 95 % of control | dose: 200.0 mg/kg/injection, schedule: Q01DX001 (ip), vehicle: other 98 % of control | dose: 400.0 mg/kg/injection, schedule: Q01DX001 (ip), vehicle: other 98 % of control

O=[N+]([O-])c1ccc2c(c1)CCCC2
inactive: [16] 98 % of control | [17] 105 % of control | [18] 104 % of control | [19] 96 % of control | [20] 116 % of control | [21] 92 % of control

CS(=O)(=O)N(CC(=O)O)Cc1cccnc1
inactive: [16] 101 % of control | [17] 106 % of control | [18] 101 % of control | [19] 93 % of control | [20] 105 % of control | [21] 95 % of control

CCOC(=O)c1cc(Br)c(O)c(Br)c1
inactive: dose: 50.0 mg/kg/injection, schedule: Q01DX009 (ip), vehicle: Klucel (hydroxypropylcellulose) (HPC) 95 % of control | dose: 100.0 mg/kg/injection, schedule: Q01DX009 (ip), vehicle: Klucel (hydroxypropylcellulose) (HPC) 91 % of control

NNC(=O)c1cc(N)nc(Cl)c1
inactive: [1] 96 % of control | [3] 96 % of control | [5] 98 % of control

C=CCSc1nc(N)nc2c1ncn2C1CC(O)C(CO)O1 (stereo not drawn)
inactive: dose: 100.0 mg/kg/injection, schedule: Q01DX005 (ip), vehicle: saline 102 % of control | [7] 102 % of control | dose: 200.0 mg/kg/injection, schedule: Q01DX005 (ip), vehicle: saline 104 % of control | [8] 109 % of control | [9] 109 % of control

OCc1ccc(Cl)cc1Cl
inactive: [15] 107 % of control | [10] 103 % of control | [11] 100 % of control | [12] 103 % of control | [13] 105 % of control | [14] 102 % of control

COC(=O)C(=CC(Cl)(Cl)Cl)C(=O)OC
inactive: dose: 6.2 mg/kg/injection, schedule: Q01DX009 (ip), vehicle: Klucel (hydroxypropylcellulose) (HPC) 102 % of control | dose: 12.5 mg/kg/injection, schedule: Q01DX009 (ip), vehicle: Klucel (hydroxypropylcellulose) (HPC) 96 % of control | dose: 25.0 mg/kg/injection, schedule: Q01DX009 (ip), vehicle: Klucel (hydroxypropylcellulose) (HPC) 96 % of control | dose: 25.0 mg/kg/injection, schedule: Q04DX003 (ip), vehicle: Klucel (hydroxypropylcellulose) (HPC) 102 % of control | dose: 50.0 mg/kg/injection, schedule: Q04DX003 (ip), vehicle: Klucel (hydroxypropylcellulose) (HPC) 97 % of control | dose: 100.0 mg/kg/injection, schedule: Q01DX001 (ip), vehicle: Klucel (hydroxypropylcellulose) (HPC) 101 % of control | dose: 100.0 mg/kg/injection, schedule: Q04DX003 (ip), vehicle: Klucel (hydroxypropylcellulose) (HPC) 97 % of control | dose: 200.0 mg/kg/injection, schedule: Q01DX001 (ip), vehicle: Klucel (hydroxypropylcellulose) (HPC) 105 % of control | dose: 200.0 mg/kg/injection, schedule: Q04DX003 (ip), vehicle: Klucel (hydroxypropylcellulose) (HPC) 102 % of control

C#CC1(OC(=O)Nc2cc3ccccc3o2)CCCCC1
inactive: [11] 90 % of control | [13] 95 % of control | [14] 92 % of control

Cc1cc2nc(Cc3nc4cc(C)c(C)cc4[nH]3)[nH]c2cc1C
inactive: dose: 50.0 mg/kg/injection, schedule: Q01DX Z (ip), vehicle: saline 105 % of control | [1] 92 % of control | dose: 100.0 mg/kg/injection, schedule: Q01DX Z (ip), vehicle: saline 95 % of control | [2] 100 % of control | [3] 93 % of control | dose: 200.0 mg/kg/injection, schedule: Q01DX Z (ip), vehicle: saline 100 % of control | [4] 92 % of control | [5] 90 % of control | dose: 400.0 mg/kg/injection, schedule: Q01DX Z (ip), vehicle: saline 97 % of control | [6] 86 % of control

O=S(=O)(CC(Br)c1ccccc1)c1ccccc1 (stereo not drawn)
inactive: [7] 92 % of control | [2] 101 % of control | [8] 95 % of control | [4] 104 % of control | [9] 94 % of control | [6] 97 % of control

CC(=C(C#N)C#N)c1ccccc1
inactive: dose: 12.5 mg/kg/injection, schedule: Q04DX003 (ip), vehicle: saline with Tween-80 95 % of control | dose: 25.0 mg/kg/injection, schedule: Q04DX003 (ip), vehicle: saline with Tween-80 94 % of control | dose: 50.0 mg/kg/injection, schedule: Q04DX003 (ip), vehicle: saline with Tween-80 89 % of control

COC(=O)C1=CCCCC(N2CCOCC2)=C1C(=O)OC
inactive: [1] 97 % of control | [3] 101 % of control | [5] 103 % of control

CCOc1ccc(NC(=O)OC/C=C/c2ccccc2)cc1
inactive: [15] 96 % of control | [10] 93 % of control | [12] 90 % of control
